What was measured:
[1] = system: inflammatory cells in BAL fluid; test: bleomycin-induced lung lesion, inflammatory cells in bronchoalveolar lavage (BAL) fluid; format: in vivo, CD1 male mice; settings: BLM-treated mice, BAL seven days after induction
Protocol: (§1) CD1 male mice ((CD1(ICR) mice (25-35 g; Harlan Nossan, Italy) were accommodated in a controlled environment and fed with standard food and water.
(§2) Using a catheter (tracheotomy tube), the mice received a single intratracheal instillation of physiological solution (0.9%) or saline containing bleomycin sulfate (0.1 U/mouse) in a final volume of 100 μL, and the liquid was immediately followed by 300 μL of air in order to also ensure the distribution thereof in the distal airways.
Seven days after the induction of fibrosis, the mice were sacrificed and their trachea was immediately cannulated with an intravenous catheter made of polyethylene (Neo Delta Ven. 2, Delta Med, Viadana, Italy) equipped with a 1 mL 24-gauge syringe. The lungs were washed once with 0.5 mL of D-PBS (GIBCO, UK). In 95% of mice, the recovery volume exceeds 0.4 mL. The BAL fluid was centrifuged at 800 rpm, the surfactant was removed and the cell pellet was resuspended in PBS. The number of cells in the BAL fluid was obtained by counting on a hemocytometer in the presence of Trypan Blue. Cytospins were prepared from the cells resuspended in PBS. The slides were dried in dry air and then colored with Diff-Quick Set Stain (Diff-Quick, Baxter Scientific, Miami, FL). Using the optical microscopy, a total of 400 cells was examined from each sample in randomly chosen fields. […]

[2] = system: MIA-induced articular cartilage erosion; test: monosodium iodoacetate (MIA)-induced articular lesion, cartilage erosion by stereomicroscope; format: in vivo; settings: Adelmidrol 150 μg/25 μL i.a.
Protocol: FIG. 1A. Images obtained by a stereomicroscope on the state of erosion of the interposed cartilage in the right knee of each experimental group: control, MIA, Adelmidrol 150 μg/25 μL i.a. The analysis was performed 21 days after the induction of the disease.
FIG. 1B. Effect of the treatment with Adelmidrol 150 μg/25 μL i.a. on the erosive lesion of the interposed cartilage upon injection of MIA, compared to MIA and control groups treated with the solvent;
A microscopic analysis of the lesion related to the articular cartilage was performed by comparing the erosive lesion of the articular cartilage between the following groups: animals not treated with MIA, animals treated with MIA+solvent, and animals treated with MIA+solvent added with Adelmidrol. […] In the image corresponding to the animal damaged through MIA, an extensive cartilage erosion is apparent, which also allows to distinguish the subchondral bone, unlike the animal control whose joint is in excellent condition. […] Each image was given a score from 0 to 4 (0=normal; 4=maximum degree of injury severity) expressing the articular cartilage lesion in terms of increasing severity (Janusz M J et al. Ostearthritis and Cartilage 2001; 9:751-760), as described by Guingamp et al. (Guingamp C. et al. Arthritis & Rheumatism 1997; Vol 40 No 9:1670-1679).

PPAR-gamma receptor = target: T1, PPAR-gamma receptor (Rattus norvegicus, UniProt O88275); test: carrageenan-induced rat paw edema with PPAR-gamma antagonist GW9662, residence time of the paw on the hot plate; format: in vivo
T1 construct: from tissue; host or cells: live rat (in vivo, paw edema model)
T1 sequence (O88275 1-505): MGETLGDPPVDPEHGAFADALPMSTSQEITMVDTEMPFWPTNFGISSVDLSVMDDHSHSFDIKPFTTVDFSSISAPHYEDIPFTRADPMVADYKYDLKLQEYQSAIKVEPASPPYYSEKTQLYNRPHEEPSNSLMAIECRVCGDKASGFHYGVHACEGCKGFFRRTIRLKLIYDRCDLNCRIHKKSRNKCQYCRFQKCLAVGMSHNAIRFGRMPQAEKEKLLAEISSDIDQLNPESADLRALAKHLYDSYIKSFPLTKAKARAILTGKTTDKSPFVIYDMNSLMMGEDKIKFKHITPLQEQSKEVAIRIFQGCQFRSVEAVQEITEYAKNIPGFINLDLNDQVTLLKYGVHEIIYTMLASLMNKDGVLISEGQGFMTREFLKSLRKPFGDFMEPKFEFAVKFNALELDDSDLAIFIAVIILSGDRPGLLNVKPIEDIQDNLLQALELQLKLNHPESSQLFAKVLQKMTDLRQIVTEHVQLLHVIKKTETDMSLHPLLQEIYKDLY
Protocol: The experimental model of carrageenan-induced rat paw edema is as shown above. In this experiment, the effect was assessed by measuring the residence time of the animal's paw on the hot plate, thus obtaining percentage data with respect to the control treated with carrageenan alone.
The rats (10 animals per group) were divided into the following experimental groups: • CAR+physiological solution; • CAR+GW9662 (1 mg/kg)+Adelmidrol (10 mg/kg); GW9662 was administered i.p. 30 min before injecting CAR and Adelmidrol (i.p.) when injecting CAR; • CAR+Adelmidrol (10 mg/kg); Adelmidrol was administered i.p. when injecting CAR.

[3] = bleomycin-induced lung lesion, weight change in the animals; format: in vivo, CD1 male mice; settings: mice, bleomycin (BLM) + Adelmidrol vs BLM + inert vehicle
Protocol: as §1, §2
All procedures related to the treatment of animals were performed in accordance with the guidelines approved by the Institutional Committee (IACUC) following the guidelines of the Association for Assessment and Accreditation of Laboratory Animal Care (AAALAC). While being monitored, the animals were inspected for any adverse effects produced by the lung lesion. An assessment of the water and food consumption and consequently of the body weight (analyzed daily by weighing the animals) was carried out (Mullane K M et al, 1985, supra).
The animals belonging to the group treated with bleomycin (BLM)+inert vehicle and those belonging to that treated with BLM and Adelmidrol in an inert vehicle were weighed, and the weight change was calculated on the 3rd and 8th day after the start of the treatment with BLM. The results are shown in the chart in FIG. 5.

## O=C(CCCCCCCC(=O)NCCO)NCCO [Adelmidrol, azelaic acid diethanolamide]
[1]
  number of macrophages, neutrophils and lymphocytes in BAL fluid (FIGS. 7 and 8): reduces the number of macrophages, neutrophils and lymphocytes in a very significant manner
[2]; 21 days after induction with MIA
  cartilage erosion of the tibial plateau, stereomicroscope image (FIG. 1A): clear protection against cartilage erosion
[2]; compared to MIA + solvent
  cartilage erosion, quantitative analysis of score 0 to 4 (FIG. 1B): noticeably slow down the cartilage erosion in a statistically significant manner
PPAR-gamma receptor; Adelmidrol 10 mg/kg ip alone, 0 min.
  residence time of the paw on the hot plate, percentage with respect to the control treated with carrageenan alone: 107.4 percentage
PPAR-gamma receptor; Adelmidrol 10 mg/kg ip alone, 30 min
  residence time of the paw on the hot plate, percentage with respect to the control treated with carrageenan alone: 98.5 percentage
PPAR-gamma receptor; Adelmidrol 10 mg/kg ip alone, 1 hr
  residence time of the paw on the hot plate, percentage with respect to the control treated with carrageenan alone: 123.2 percentage
PPAR-gamma receptor; Adelmidrol 10 mg/kg ip alone, 2 hr
  residence time of the paw on the hot plate, percentage with respect to the control treated with carrageenan alone: 134.2 percentage
PPAR-gamma receptor; Adelmidrol 10 mg/kg ip alone, 3 hr
  residence time of the paw on the hot plate, percentage with respect to the control treated with carrageenan alone: 146.8 percentage
PPAR-gamma receptor; Adelmidrol 10 mg/kg ip alone, 4 hr
  residence time of the paw on the hot plate, percentage with respect to the control treated with carrageenan alone: 197.7 percentage
PPAR-gamma receptor; Adelmidrol 10 mg/kg ip alone, 5 hr
  residence time of the paw on the hot plate, percentage with respect to the control treated with carrageenan alone: 175.0 percentage
PPAR-gamma receptor; GW9662 1 mg/kg i.p. 30 min before CAR + Adelmidrol 10 mg/kg i.p., 0 min.
  residence time of the paw on the hot plate, percentage with respect to the control treated with carrageenan alone: 105.2 percentage
PPAR-gamma receptor; GW9662 1 mg/kg i.p. 30 min before CAR + Adelmidrol 10 mg/kg i.p., 30 min
  residence time of the paw on the hot plate, percentage with respect to the control treated with carrageenan alone: 96.2 percentage
PPAR-gamma receptor; GW9662 1 mg/kg i.p. 30 min before CAR + Adelmidrol 10 mg/kg i.p., 1 hr
  residence time of the paw on the hot plate, percentage with respect to the control treated with carrageenan alone: 102.4 percentage
PPAR-gamma receptor; GW9662 1 mg/kg i.p. 30 min before CAR + Adelmidrol 10 mg/kg i.p., 2 hr
  residence time of the paw on the hot plate, percentage with respect to the control treated with carrageenan alone: 104.1 percentage
PPAR-gamma receptor; GW9662 1 mg/kg i.p. 30 min before CAR + Adelmidrol 10 mg/kg i.p., 3 hr
  residence time of the paw on the hot plate, percentage with respect to the control treated with carrageenan alone: 111.3 percentage
PPAR-gamma receptor; GW9662 1 mg/kg i.p. 30 min before CAR + Adelmidrol 10 mg/kg i.p., 4 hr
  residence time of the paw on the hot plate, percentage with respect to the control treated with carrageenan alone: 114.1 percentage
PPAR-gamma receptor; GW9662 1 mg/kg i.p. 30 min before CAR + Adelmidrol 10 mg/kg i.p., 5 hr
  residence time of the paw on the hot plate, percentage with respect to the control treated with carrageenan alone: 112.5 percentage
[3]
  body weight change on the 3rd and 8th day after start of BLM (FIG. 5): significant body weight gain
